Data published in US10160747B2, “Compounds and methods for kinase modulation, and indications therefor” (Plexxikon Inc., priority 2016, dated 2018).
pIC50: −log10 of the molar value.

Columns and labels:
[1] = system: MOLM-14 D835Y (endogenous FLT3 ITD and transfected FLT3 D835Y); experiment: MOLM-14 D835Y cell proliferation assay (CellTiter-Glo); format: cell-based; conditions: Homo sapiens, MOLM-14, 72 h; 3 d growth, GMean
In short: (§1)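 MOLM-14 cells (FLT3 ITD) carrying D835Y or F691L, 1×10^4 cells/well, eight 1:3 dilutions from 1 μM final, 0.2% DMSO, 3 days at 37 °C, 5% CO2. Viability by CellTiter-Glo luminescence (ATP content); IC50 from concentration-response.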

[2] = system: MOLM-14 F691L (endogenous FLT3 ITD and transfected FLT3 F691L); experiment: MOLM-14 F691L cell proliferation assay (CellTiter-Glo); format: cell-based; conditions: Homo sapiens, MOLM-14, 72 h; 3 d growth, GMean
In short: as §1

CSF1R = CSF1R (Homo sapiens, UniProt P07333); experiment: CSF1R 100 ATP 8 pt kinase assay (Table 6); format: biochemical
Sequence of CSF1R (P07333 20-972, species assumed): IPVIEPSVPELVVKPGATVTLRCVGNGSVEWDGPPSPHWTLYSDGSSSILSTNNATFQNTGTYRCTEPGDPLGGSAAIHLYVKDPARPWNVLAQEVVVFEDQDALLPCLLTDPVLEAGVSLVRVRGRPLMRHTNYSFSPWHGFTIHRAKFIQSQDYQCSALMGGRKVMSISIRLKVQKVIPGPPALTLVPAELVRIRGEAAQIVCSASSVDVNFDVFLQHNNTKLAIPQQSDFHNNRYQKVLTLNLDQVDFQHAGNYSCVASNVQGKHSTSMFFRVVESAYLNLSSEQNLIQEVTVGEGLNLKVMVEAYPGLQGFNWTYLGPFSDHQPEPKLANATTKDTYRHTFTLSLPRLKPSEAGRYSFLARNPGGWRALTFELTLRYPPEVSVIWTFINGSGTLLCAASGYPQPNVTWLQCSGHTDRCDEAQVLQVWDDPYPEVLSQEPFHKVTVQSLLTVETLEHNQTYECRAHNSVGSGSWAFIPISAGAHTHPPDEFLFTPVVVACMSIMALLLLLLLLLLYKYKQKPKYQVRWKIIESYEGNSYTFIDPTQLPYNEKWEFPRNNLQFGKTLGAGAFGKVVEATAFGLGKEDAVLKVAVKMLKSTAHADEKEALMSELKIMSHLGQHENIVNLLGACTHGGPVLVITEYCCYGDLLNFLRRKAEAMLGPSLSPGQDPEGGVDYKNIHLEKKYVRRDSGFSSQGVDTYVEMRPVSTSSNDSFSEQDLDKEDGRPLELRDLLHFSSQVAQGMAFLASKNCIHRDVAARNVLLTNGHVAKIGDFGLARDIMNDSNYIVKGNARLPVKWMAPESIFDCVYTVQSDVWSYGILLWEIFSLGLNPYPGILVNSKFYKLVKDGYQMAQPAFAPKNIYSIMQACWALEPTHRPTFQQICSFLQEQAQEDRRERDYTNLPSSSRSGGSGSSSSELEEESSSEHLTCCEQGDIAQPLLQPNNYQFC
Description: The following Table 6 provides data indicating FLT3 ITD, D835Y and F691L; c-KIT and CSF1R biochemical and/or cell inhibitory activity for exemplary compounds as described herein.

CCn1cc(Nc2ncc(-c3ccc(CC(=O)Nc4cnc(Cl)c(C(F)(F)F)c4)cc3)cn2)cn1 [Compound P-0165, N-[6-chloro-5-(trifluoromethyl)-3-pyridyl]-2-[4-[2-[(1-ethylpyrazol-4-yl)amino]pyrimidin-5-yl]phenyl]acetamide]
pIC50 [1]: 5.00 to 10.00 | pIC50 [2]: 5.00 to 10.00

CCn1cc(Nc2ncc(-c3ccc(CC(=O)Nc4cncc(C(F)(F)F)c4)cc3)cn2)cn1 [Compound P-0166, 2-[4-[2-[(1-ethylpyrazol-4-yl)amino]pyrimidin-5-yl]phenyl]-N-[5-(trifluoromethyl)-3-pyridyl]acetamide]
pIC50 [1]: 5.00 to 10.00 | pIC50 [2]: 5.00 to 10.00

Cn1cnc(Nc2ncc(-c3ccc(CC(=O)Nc4cncc(C(F)(F)F)c4)cc3)cn2)c1 [Compound P-0167]
pIC50 [1]: 5.00 to 10.00 | pIC50 [2]: 5.00 to 10.00

Cn1cnc(Nc2ncc(-c3ccc(CC(=O)Nc4cnc(F)c(C(C)(F)F)c4)cc3)cn2)c1 [Compound P-0168, N-[5-(1,1-difluoroethyl)-6-fluoro-3-pyridyl]-2-[4-[2-[(1-methylimidazol-4-yl)amino]pyrimidin-5-yl]phenyl]acetamide]
pIC50 [1]: 5.00 to 10.00 | pIC50 [2]: 5.00 to 10.00

Cn1cnc(Nc2ncc(-c3ccc(CC(=O)Nc4cc(C(C)(F)F)ccn4)cc3)cn2)c1 [Compound P-0169, N-[4-(1,1-difluoroethyl)-2-pyridyl]-2-[4-[2-[(1-methylimidazol-4-yl)amino]pyrimidin-5-yl]phenyl]acetamide]
pIC50 [1]: 5.00 to 10.00 | pIC50 [2]: 5.00 to 10.00

Cc1n[nH]c2ncc(-c3cc(F)c(CC(=O)Nc4cncc(C(F)(F)F)c4)cc3F)cc12 [Compound P-0173, 2-[2,5-difluoro-4-(3-methyl-1H-pyrazolo[3,4-b]pyridin-5-yl)phenyl]-N-[5-(trifluoromethyl)-3-pyridyl]acetamide]
pIC50 [1]: 5.00 to 10.00 | pIC50 (CSF1R): 5.00 to 10.00

COc1ncc(NC(=O)Cc2ccc(-c3cnc4[nH]nc(C)c4c3)c(F)c2)cc1C(F)(F)F [Compound P-0174, 2-[3-fluoro-4-(3-methyl-1H-pyrazolo[3,4-b]pyridin-5-yl)phenyl]-N-[6-methoxy-5-(trifluoromethyl)-3-pyridyl]acetamide]
pIC50 [1]: 5.00 to 10.00 | pIC50 (CSF1R): 5.00 to 10.00

Cc1ncc(NC(=O)Cc2cc(F)c(-c3cnc4[nH]nc(C)c4c3)cc2F)cc1C(F)(F)F [Compound P-0175, 2-(2,5-difluoro-4-(3-methyl-1H-pyrazolo[3,4-b]pyridin-5-yl)phenyl)-N-(6-methyl-5-(trifluoromethyl)pyridin-3-yl)acetamide]
pIC50 [1]: 5.00 to 10.00 | pIC50 (CSF1R): 5.00 to 10.00

Cc1n[nH]c2ncc(-c3ccc(CC(=O)Nc4cncc(C(F)(F)F)c4)cc3F)cc12 [Compound P-0177, 2-[3-fluoro-4-(3-methyl-1H-pyrazolo[3,4-b]pyridin-5-yl)phenyl]-N-[5-(trifluoromethyl)-3-pyridyl]acetamide]
pIC50 [1]: 5.00 to 10.00 | pIC50 (CSF1R): 5.00 to 10.00

COCCn1cc(Nc2ncc(-c3ccc(CC(=O)Nc4cncc(C(F)(F)F)c4)cc3)cn2)cn1 [Compound P-0178, 2-[4-[2-[[1-(2-methoxyethyl)pyrazol-4-yl]amino]pyrimidin-5-yl]phenyl]-N-[5-(trifluoromethyl)-3-pyridyl]acetamide]
pIC50 [1]: 5.00 to 10.00 | pIC50 [2]: 5.00 to 10.00

COCCn1cc(Nc2ncc(-c3ccc(CC(=O)Nc4cnc(C)c(C(F)(F)F)c4)cc3)cn2)cn1 [Compound P-0179, 2-[4-[2-[[1-(2-methoxyethyl)pyrazol-4-yl]amino]pyrimidin-5-yl]phenyl]-N-[6-methyl-5-(trifluoromethyl)-3-pyridyl]acetamide]
pIC50 [1]: 5.00 to 10.00 | pIC50 [2]: 5.00 to 10.00

COc1nn(C[C@H](C)O)cc1Nc1ncc(-c2ccc(CC(=O)Nc3cnc(C)c(C(F)(F)F)c3)cc2)cn1 [Compound P-0180, 2-[4-[2-[[1-[(2S)-2-hydroxypropyl]-3-methoxy-pyrazol-4-yl]amino]pyrimidin-5-yl]phenyl]-N-[6-methyl-5-(trifluoromethyl)-3-pyridyl]acetamide]
pIC50 [1]: 5.00 to 10.00 | pIC50 [2]: 5.00 to 10.00

O=C(Cc1ccc(-c2cnc3[nH]c(-c4ccnc(N5CCOCC5)c4)cc3c2)cn1)Nc1ccnc(C(F)(F)F)c1 [Compound P-0181, 2-[5-[2-(2-morpholino-4-pyridyl)-1H-pyrrolo[2,3-b]pyridin-5-yl]-2-pyridyl]-N-[2-(trifluoromethyl)-4-pyridyl]acetamide]
pIC50 [1]: 5.00 to 10.00 | pIC50 [2]: 5.00 to 10.00

N#Cc1cc(-c2cc3cc(-c4ccc(CC(=O)Nc5ccnc(C(F)(F)F)c5)nc4)cnc3[nH]2)ccn1 [Compound P-0182, 2-[5-[2-(2-cyano-4-pyridyl)-1H-pyrrolo[2,3-b]pyridin-5-yl]-2-pyridyl]-N-[2-(trifluoromethyl)-4-pyridyl]acetamide]
pIC50 [1]: 5.00 to 10.00 | pIC50 [2]: 5.00 to 10.00

O=C(Cc1ccc(-c2cnc3[nH]c(-c4ccc(N5CCOCC5)nc4)cc3c2)cn1)Nc1ccnc(C(F)(F)F)c1 [Compound P-0183, 2-[5-[2-(6-morpholino-3-pyridyl)-1H-pyrrolo[2,3-b]pyridin-5-yl]-2-pyridyl]-N-[2-(trifluoromethyl)-4-pyridyl]acetamide]
pIC50 [1]: 5.00 to 10.00 | pIC50 [2]: 5.00 to 10.00

O=C(Cc1ccc(-c2cnc3[nH]c(-c4ccc(N5CCOCC5)nc4)cc3c2)c(F)c1)Nc1cc(C(F)(F)F)ccn1 [Compound P-0192, 2-[3-fluoro-4-[2-(6-morpholino-3-pyridyl)-1H-pyrrolo[2,3-b]pyridin-5-yl]phenyl]-N-[4-(trifluoromethyl)-2-pyridyl]acetamide]
pIC50 [1]: 5.00 to 10.00 | pIC50 [2]: 5.00 to 10.00

COc1ccc(-c2cc3cc(-c4ccc(CC(=O)Nc5cncc(C(F)(F)F)c5)cc4F)cnc3[nH]2)cn1 [Compound P-0196, 2-[3-fluoro-4-[2-(6-methoxy-3-pyridyl)-1H-pyrrolo[2,3-b]pyridin-5-yl]phenyl]-N-[5-(trifluoromethyl)-3-pyridyl]acetamide]
pIC50 [1]: 5.00 to 10.00 | pIC50 [2]: 5.00 to 10.00

O=C(Cc1ccc(-c2cnc3[nH]c(-c4cnn(C(F)F)c4)cc3c2)c(F)c1)Nc1cncc(C(F)(F)F)c1 [Compound P-0197, 2-[4-[2-[1-(difluoromethyl)pyrazol-4-yl]-1H-pyrrolo[2,3-b]pyridin-5-yl]-3-fluoro-phenyl]-N-[5-(trifluoromethyl)-3-pyridyl]acetamide]
pIC50 [1]: 5.00 to 10.00 | pIC50 [2]: 5.00 to 10.00

O=C(Cc1ccc(-c2cnc3[nH]c(-c4ccc(N5CCOCC5)nc4)cc3c2)c(F)c1)Nc1cncc(C(F)(F)F)c1 [Compound P-0198, 2-[3-fluoro-4-[2-(6-morpholino-3-pyridyl)-1H-pyrrolo[2,3-b]pyridin-5-yl]phenyl]-N-[5-(trifluoromethyl)-3-pyridyl]acetamide]
pIC50 [1]: 5.00 to 10.00 | pIC50 [2]: 5.00 to 10.00

N#Cc1cc(-c2cc3cc(-c4ccc(CC(=O)Nc5cncc(C(F)(F)F)c5)cc4F)cnc3[nH]2)ccn1 [Compound P-0199, 2-[4-[2-(2-cyano-4-pyridyl)-1H-pyrrolo[2,3-b]pyridin-5-yl]-3-fluoro-phenyl]-N-[5-(trifluoromethyl)-3-pyridyl]acetamide]
pIC50 [1]: 5.00 to 10.00 | pIC50 [2]: 5.00 to 10.00
